Assays:
Type in all cases: biochemical
KDR = target: T1, KDR (Homo sapiens, UniProt P35968); assay: KDR enzyme inhibition (Biotin-polyE4Y, alphascreen); conditions: 0.1 μM ATP
T1 construct: purchased Upstate
Experimental: (§1) The test solution prepared above by dissolving a test compound in DMSO was added to the reaction solution in an amount of less than 5% based on the total reaction solution to analyze the capacity for enzyme inhibitory activity. The cpm value obtained when the test compounds was present relative to the cpm value in the absence of the test compound was represented by percentage, and IC50 (μM) was determined as the concentration of the test compound required to inhibit the enzyme activity by 50% relatively to the control solution.
The compounds prepared in the Examples were dissolved in dimethylsulfoxide (DMSO) at a concentration of 12.5 mM to prepare test solution, and enzyme reaction was conducted in a buffer solution containing 50 mM tris-HCl (pH 7.5), 5 mM MgCl2, 1 mM MnCl2, 0.01% tween-20 and 2 mM of DTT. 1 nM of Biotin-polyE4Y (Packard) and 0.1 μM of ATP were added to the buffer solution as substrates. 2 nM of recombinant KDR (Upstate) was added the resulting mixture and reaction was carried out at 30° C. for 1 hour. 10 μl of a diluted solution prepared by diluting alphascreen phosphotyrosine (T-Tyr-100, Packard) beads with a solution containing 6.25 mM of HEPES (pH 7.4), 250 mM of NaCl, 100 Mm EDTA, and 0.25% BSA was added to 15 μl of the KDR reaction solution. After a reaction at a room temperature for 1 hour, alphascreen signal was measured by a fusion a-FP (Packard). Inhibitory capacities of the test compounds for the enzyme activity were assessed according to the same method as in GSK-3β analysis, and IC50 value was calculated.

CDK-2/cycline A = target: T2, CDK-2/cycline A (Homo sapiens, UniProt P24941); assay: CDK-2 enzyme inhibition (histone H1, 32P-ATP)
T2 construct: purchased Upstate
Experimental: (§2) 0.33 mg/ml of MBP (Upstate), 100 μM of ATP and 0.25 μCi of ^32P-ATP were added to the buffer solution as substrates. 5 nM of recombinant Erk-1 (Upstate) was added the resulting mixture, and the mixture was reacted at 30° C. for 1 hour. The reaction was terminated by adding 5 μl of 5% phosphoric acid solution to 25 μl of the reaction mixture. 15 μl of the resulting solution was dropped on whatman p81 filter paper, which was then washed in 0.5% phosphoric acid solution for 10 mins. After repeating the washing 3 times, the filter paper was dried and cpm thereof was measured by a liquid scintillation counter (Packard, USA). Inhibitory capacities of the test compounds for the enzyme activity were assessed according to the same method as in GSK-3β analysis, and IC50 value was calculated.
The procedure of ERK-1 analysis was repeated to assess inhibitory capacities of the test compounds for the enzyme activity, except for using 2.5 μg of histone H1 (Upstate) and 100 nM of recombinant CDK-2/cycline A (Upstate).

PDK-1 = target: T3, PDK-1 (Homo sapiens, UniProt O15530); assay: PDK-1 enzyme inhibition (PDKtide, Kinase glo)
T3 construct: purchased Upstate
T3 sequence (O15530 1-556): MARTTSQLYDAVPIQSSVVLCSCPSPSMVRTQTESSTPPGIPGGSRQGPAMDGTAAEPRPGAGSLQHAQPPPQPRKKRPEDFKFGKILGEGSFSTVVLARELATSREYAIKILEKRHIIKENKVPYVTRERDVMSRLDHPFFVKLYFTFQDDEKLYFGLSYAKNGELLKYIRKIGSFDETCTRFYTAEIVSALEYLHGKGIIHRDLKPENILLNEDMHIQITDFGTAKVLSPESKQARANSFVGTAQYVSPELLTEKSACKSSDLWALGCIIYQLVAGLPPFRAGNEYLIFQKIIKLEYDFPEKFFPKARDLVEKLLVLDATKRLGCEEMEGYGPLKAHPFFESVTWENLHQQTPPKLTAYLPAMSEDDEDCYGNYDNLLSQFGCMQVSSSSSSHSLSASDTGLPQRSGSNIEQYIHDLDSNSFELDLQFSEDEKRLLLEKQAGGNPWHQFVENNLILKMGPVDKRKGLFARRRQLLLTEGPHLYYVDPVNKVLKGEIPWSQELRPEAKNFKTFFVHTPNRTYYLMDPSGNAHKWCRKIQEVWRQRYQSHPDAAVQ
Experimental: (§3) A test solution was prepared by dissolving one of the compounds of the Examples in DMSO at a concentration of 12.5 mM. Enzyme reaction was conducted in a buffer solution containing 20 mM of HEPES (pH 7.5), 5 mM MgCl2, 0.5 mM ethylene glycol bis(b-aminoethylether) tetraacetic acid (EGTA), 200 mM of KCl, 1 mM of DTT and 0.05% triton X-100. 100 μM of Kemptide peptide (Upstate) and 1 μM of ATP were added to the buffer solution as substrates. Recombinant aurora kinase (Upstate) was added the resulting mixture at a concentration of 10 nM and reaction was carried out at 30° C. for 1 hour. 25 μl of the resulting solution was mixed with 25 μl of Kinase glo (promega), thereby inducing the second reaction by luciferase. The amount of remained ATP was measured by fusion a-FP (Packard, USA). Inhibitory capacities of the test compounds for the enzyme activity were assessed according to the same method as in GSK-3β analysis, and IC50 value was calculated.
The procedure of aurora kinase A analysis was repeated to assess inhibitory capacities of the test compounds for the enzyme activity, except for using a buffer solution containing 50 mM of tris-HCl (pH 7.5), 10 mM of MgCl2, 1 mM of EGTA and 1 mM of […]; 2.5 μM of PDKtide (peptide, Upstate) (Upstate); and 31.5 nM of recombinant PDK1 (Upstate).

ERK-1 = target: T4, ERK-1 (Homo sapiens, UniProt P27361); assay: ERK-1 enzyme inhibition (MBP, 32P-ATP); conditions: ERK-1, 100 μM ATP
T4 construct: purchased Upstate
T4 sequence (P27361 whole entry, species assumed): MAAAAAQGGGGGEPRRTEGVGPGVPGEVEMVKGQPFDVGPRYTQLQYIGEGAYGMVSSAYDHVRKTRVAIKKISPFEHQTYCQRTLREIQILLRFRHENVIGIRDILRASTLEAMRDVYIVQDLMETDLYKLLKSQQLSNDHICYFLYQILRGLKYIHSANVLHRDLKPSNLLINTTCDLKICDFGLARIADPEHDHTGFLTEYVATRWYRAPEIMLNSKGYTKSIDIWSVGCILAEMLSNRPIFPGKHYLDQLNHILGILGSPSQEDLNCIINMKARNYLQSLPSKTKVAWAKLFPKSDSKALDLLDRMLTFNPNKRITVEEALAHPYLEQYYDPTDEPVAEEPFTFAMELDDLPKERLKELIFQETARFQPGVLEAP
Experimental: as §1
as §2, with “The compounds prepared in the Examples were dissolved in dimethylsulfoxide (DMSO) at a concentration of 12.5 mM to prepare test compounds and enzyme reaction was conducted in a buffer solution containing 50 mM of tris-HCl (pH 7.5), 10 mM of MgCl2, 1 mM of EGTA, 1 mM of EDTA and 1 mM of DTT. 0.33” for “0.33”

JNK-1 = target: T5, JNK-1 (Homo sapiens, UniProt P45983); assay: JNK-1 enzyme inhibition (GST-ATF2, 32P-ATP)
T5 construct: purchased Upstate
T5 sequence (P45983 whole entry, species assumed): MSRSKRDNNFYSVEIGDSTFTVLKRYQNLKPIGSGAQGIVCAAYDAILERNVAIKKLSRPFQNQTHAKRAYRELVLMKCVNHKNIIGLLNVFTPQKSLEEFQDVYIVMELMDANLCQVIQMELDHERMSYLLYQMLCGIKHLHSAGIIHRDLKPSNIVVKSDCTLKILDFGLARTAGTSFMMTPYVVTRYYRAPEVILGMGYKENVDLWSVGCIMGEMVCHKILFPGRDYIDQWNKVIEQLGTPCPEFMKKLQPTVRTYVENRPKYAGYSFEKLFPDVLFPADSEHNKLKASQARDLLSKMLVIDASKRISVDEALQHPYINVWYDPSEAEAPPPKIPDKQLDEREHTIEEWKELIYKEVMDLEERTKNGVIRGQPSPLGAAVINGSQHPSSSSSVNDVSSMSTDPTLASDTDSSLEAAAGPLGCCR

Aurora Kinase A = target: T6, Aurora Kinase A (Homo sapiens, UniProt O14965); assay: Aurora kinase A enzyme inhibition (Kemptide, Kinase glo); conditions: 1 μM ATP
T6 construct: purchased Upstate
T6 sequence (O14965 1-403): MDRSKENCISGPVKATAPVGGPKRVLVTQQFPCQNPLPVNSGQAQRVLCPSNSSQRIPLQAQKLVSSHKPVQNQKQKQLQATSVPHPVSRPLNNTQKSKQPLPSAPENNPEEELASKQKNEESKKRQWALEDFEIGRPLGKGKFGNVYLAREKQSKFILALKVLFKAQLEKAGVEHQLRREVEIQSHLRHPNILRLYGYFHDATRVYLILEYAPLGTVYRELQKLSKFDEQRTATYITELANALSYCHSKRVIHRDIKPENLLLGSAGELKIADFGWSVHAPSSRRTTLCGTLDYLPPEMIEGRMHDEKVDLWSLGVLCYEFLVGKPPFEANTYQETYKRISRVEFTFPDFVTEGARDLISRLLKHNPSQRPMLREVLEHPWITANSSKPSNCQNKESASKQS
Experimental: as §1, §3

[1] = target: T7, p38 Mitogen-activated protein kinase (MAPK) (Homo sapiens, UniProt Q16539); assay: p38 MAPK enzyme inhibition (histone H1, 32P-ATP); conditions: p38 MAPK (recombinant p38a)
T7 construct: purchased Upstate
T7 sequence (Q16539 whole entry): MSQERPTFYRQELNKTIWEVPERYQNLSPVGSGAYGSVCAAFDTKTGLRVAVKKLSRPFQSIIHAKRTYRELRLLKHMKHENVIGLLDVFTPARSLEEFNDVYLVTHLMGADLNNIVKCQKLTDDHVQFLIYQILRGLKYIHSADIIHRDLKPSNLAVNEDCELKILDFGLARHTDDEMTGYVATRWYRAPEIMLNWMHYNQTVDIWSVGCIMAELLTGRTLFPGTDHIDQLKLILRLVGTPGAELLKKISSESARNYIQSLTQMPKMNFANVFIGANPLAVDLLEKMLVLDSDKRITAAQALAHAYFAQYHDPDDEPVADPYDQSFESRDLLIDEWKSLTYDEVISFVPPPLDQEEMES
Experimental: The procedure of ERK-1 analysis was repeated to assess inhibitory capacities of the test compounds for the enzyme activity, except for using 2.5 μg of histone H1 (Upstate) and 5 nM of recombinant p38a (Upstate).

T1 sequence (P35968 20-1356, species assumed): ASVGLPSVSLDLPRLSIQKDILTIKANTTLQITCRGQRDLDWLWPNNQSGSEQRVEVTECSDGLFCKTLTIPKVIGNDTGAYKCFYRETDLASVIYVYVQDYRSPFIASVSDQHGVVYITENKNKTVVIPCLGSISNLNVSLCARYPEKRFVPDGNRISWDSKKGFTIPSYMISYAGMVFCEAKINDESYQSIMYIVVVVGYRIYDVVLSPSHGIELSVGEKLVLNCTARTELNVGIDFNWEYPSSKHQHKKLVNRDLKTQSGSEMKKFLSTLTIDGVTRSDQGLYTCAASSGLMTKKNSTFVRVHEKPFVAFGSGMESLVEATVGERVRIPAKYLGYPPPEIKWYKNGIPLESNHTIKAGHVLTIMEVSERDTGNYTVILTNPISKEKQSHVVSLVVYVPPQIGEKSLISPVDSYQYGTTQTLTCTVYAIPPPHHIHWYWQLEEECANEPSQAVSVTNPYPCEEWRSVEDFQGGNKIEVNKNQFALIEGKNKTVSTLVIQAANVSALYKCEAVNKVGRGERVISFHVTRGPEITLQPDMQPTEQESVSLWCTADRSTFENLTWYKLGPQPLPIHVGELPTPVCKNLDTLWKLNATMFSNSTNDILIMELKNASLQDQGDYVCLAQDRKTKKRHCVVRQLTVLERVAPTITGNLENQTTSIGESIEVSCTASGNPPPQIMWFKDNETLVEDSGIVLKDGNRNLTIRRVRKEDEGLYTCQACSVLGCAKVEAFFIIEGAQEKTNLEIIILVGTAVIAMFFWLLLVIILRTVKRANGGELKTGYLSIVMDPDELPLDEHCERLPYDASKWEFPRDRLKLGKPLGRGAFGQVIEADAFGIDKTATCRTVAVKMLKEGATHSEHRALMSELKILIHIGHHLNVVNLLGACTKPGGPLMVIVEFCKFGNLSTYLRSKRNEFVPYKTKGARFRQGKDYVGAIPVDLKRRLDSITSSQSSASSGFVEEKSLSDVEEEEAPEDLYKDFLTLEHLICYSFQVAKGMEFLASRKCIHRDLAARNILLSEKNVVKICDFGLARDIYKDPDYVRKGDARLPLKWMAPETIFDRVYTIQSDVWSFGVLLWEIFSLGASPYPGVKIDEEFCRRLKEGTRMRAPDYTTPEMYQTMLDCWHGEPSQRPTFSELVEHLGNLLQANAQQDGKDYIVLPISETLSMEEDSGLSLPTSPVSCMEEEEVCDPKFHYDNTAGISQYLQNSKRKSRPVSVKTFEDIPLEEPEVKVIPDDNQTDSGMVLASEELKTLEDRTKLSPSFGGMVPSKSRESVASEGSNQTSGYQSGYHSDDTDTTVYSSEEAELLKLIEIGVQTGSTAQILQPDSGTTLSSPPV

Row | Compound | IC50 (KDR) | IC50 (CDK-2/cycline A) | IC50 (PDK-1) | IC50 (ERK-1) | IC50 (JNK-1) | IC50 (Aurora Kinase A) | IC50 [1]
1 | CCS(=O)(=O)Nc1ccc(CCNC(=O)c2ccnc3[nH]c(-c4ccc(F)cc4)nc23)cc1 [Example 198, 2-(4-fluoro-phenyl)-3H-imidazo[4,5-b]pyridine-7-carboxylic acid[2-(4-ethanesulfonylamino-phenyl)-ethyl]-amide] | 12500 nM | 2400 nM | – | – | – | – | –
2 | Cc1ccncc1NC(=O)c1ccnc2[nH]c(-c3ccc(F)cc3)nc12 [Example 241, 2-(4-fluoro-phenyl)-3H-imidazo[4,5-b]pyridine-7-carboxylic acid(4-methyl-pyridin-3-yl)-amide] | – | – | 28500 nM | 16500 nM | – | – | –
3 | COc1ccncc1NC(=O)c1ccnc2[nH]c(-c3ccc(F)cc3)nc12 [Example 246, 2-(4-fluoro-phenyl)-3H-imidazo[4,5-b]pyridine-7-carboxylic acid(4-methyloxy-pyridin-3-yl)-amide] | 520 nM | 225 nM | – | – | 180 nM | – | –
4 | CCOc1ccncc1NC(=O)c1ccnc2[nH]c(-c3ccc(F)cc3)nc12 [Example 287, 2-(4-fluoro-phenyl)-3H-imidazo[4,5-b]pyridine-7-carboxylic acid(4-ethoxy-pyridin-3-yl)-amide] | 1500 nM | 120 nM | – | – | 460 nM | – | –
5 | Cc1ccncc1NC(=O)c1ccnc2[nH]c(-c3ccc(NCCCN4CCCC4)cc3)nc12 [Example 340, 2-[4-(3-pyrrolidin-1-yl-propylamino)-phenyl]-3H-imidazo[4,5-b]pyridine-7-carboxylic acid(4-methyl-pyridin-3-yl)-amide] | – | 400 nM | – | – | 100 nM | – | –
6 | Cc1ccncc1NC(=O)c1ccnc2[nH]c(-c3ccc(NCCCCN(C)C)cc3)nc12 [Example 343, 2-[4-(4-dimethylamino-butylamino)-phenyl]-3H-imidazo[4,5-b]pyridine-7-carboxylic acid(4-methyl-pyridin-3-yl)-amide] | 170 nM | 300 nM | 3100 nM | – | – | 198 nM | –
7 | Cc1ccncc1NC(=O)c1ccnc2[nH]c(-c3cccc(F)c3)nc12 [Example 451, 2-(3-fluoro-phenyl)-3H-imidazo[4,5-b]pyridine-7-carboxylic acid(4-methyl-pyridin-3-yl)-amide] | 1650 nM | 360 nM | – | – | 10500 nM | – | 3250 nM
8 | Cc1ccncc1NC(=O)c1c(Br)cnc2[nH]c(-c3cccc(F)c3)nc12 [Example 452, 6-bromo-2-(3-fluoro-phenyl)-3H-imidazo[4,5-b]pyridine-7-carboxylic acid(4-methyl-pyridin-3-yl)-amide] | – | 350 nM | – | 19000 nM | – | – | –
